Source: patent publication US20250115576A1, “THERAPEUTIC COMPOUNDS AND METHODS OF USE THEREOF” (Genentech, Inc., priority 2018, published 2025)
Counter-ions that a name gives are not always drawn.

Molecular target: hNav1.7 (Homo sapiens (Human), UniProt Q15858)
Assay: Patch voltage clamp electrophysiology (EP), Syncropatch 384PE, CHO cells stably expressing Nav1.7
Type: cell-based
Settings: holding potential −50 mV, 7.5 min compound incubation, read-out: EP_SP hNav1.7 EVO IC50
Text: Example 64c. Electrophysiological Assay (EP) (In Vitro Assay)
Patch voltage clamp electrophysiology allows for the direct measurement and quantification of block of voltage-gated sodium channels (NaV's), and allows the determination of the time- and voltage-dependence of block which has been interpreted as differential binding to the resting, open, and inactivated states of the sodium channel (Hille, B., Journal of General Physiology (1977), 69: 497-515).
The following voltage clamp electrophysiology studies are performed on representative compounds using cells heterologously expressing Nav1.7 or Nav1.5 channels. cDNAs for Nav1.7 (NM_002977) and Nav1.5 (AC137587) are stably expressed in Chinese Hamstr Ovary (CHO) cells and CHL (Chinese Hamster Lung) cells respectively. Sodium currents are measured in the whole-cell configuration using Syncropatch 384PE (Nanlon Technologies, Germany). 1NPC®-384 chips with custom medium resistance and single hole mode are used. Internal solution consists of (in mM): […], 10 CsCl, 20 EGTA, and 10 Hepes (pH adjusted to 7.2); and external solution contains (in mM): 60 NMDG, 80 NaCl, 4 KCl, 1 MgCl2, 2 CaCl2, 2 D-Glucose monohydrate, 10 Hepes (pH adjusted to 7.4 with NaOH).
After system flushing, testing compounds are dissolved in external solution containing 0.1% Pluronic F-127. The chip is moved into the measuring head and the instrument primes the chip with external and internal solutions. 10 μl cells are added to the chip from a cell hotel, and a negative pressure of −50 mBar is applied to form a seal. Following treatment with seal enhancer solution and wash-off with external solution, negative pressure of −250 mbar is applied for 1 second to achieve the whole-cell configuration, followed by three washing steps in external solution. 20 μl of compounds is added to 40 μl in each well (1:3 dilution of compounds), and after mixing, 20 μl is removed so the volume is retained at 40 ul. After approximately 13 minutes recordings, 20 μl/well of 2 uM TTX, or 333 uM Tetracaine (for […]) is added to achieve full block.
For voltage protocol, an holding potential of −50 mV is applied during the whole experiment. A depolarizing step is applied to −10 mV for 10 ms, followed by a hyperpolarization step to −150 mV for 20 ms to allow channel recovery from inactivation. A second depolarizing step is applied from −150 mV to −10 mV for 10 ms, where currents are measured to derive blocking effects of compounds. Inhibition is determined based on 7.5 min of compound incubation.

Chain of hNav1.7 (Q15858 other isoform, or with tags, fused parts or gaps): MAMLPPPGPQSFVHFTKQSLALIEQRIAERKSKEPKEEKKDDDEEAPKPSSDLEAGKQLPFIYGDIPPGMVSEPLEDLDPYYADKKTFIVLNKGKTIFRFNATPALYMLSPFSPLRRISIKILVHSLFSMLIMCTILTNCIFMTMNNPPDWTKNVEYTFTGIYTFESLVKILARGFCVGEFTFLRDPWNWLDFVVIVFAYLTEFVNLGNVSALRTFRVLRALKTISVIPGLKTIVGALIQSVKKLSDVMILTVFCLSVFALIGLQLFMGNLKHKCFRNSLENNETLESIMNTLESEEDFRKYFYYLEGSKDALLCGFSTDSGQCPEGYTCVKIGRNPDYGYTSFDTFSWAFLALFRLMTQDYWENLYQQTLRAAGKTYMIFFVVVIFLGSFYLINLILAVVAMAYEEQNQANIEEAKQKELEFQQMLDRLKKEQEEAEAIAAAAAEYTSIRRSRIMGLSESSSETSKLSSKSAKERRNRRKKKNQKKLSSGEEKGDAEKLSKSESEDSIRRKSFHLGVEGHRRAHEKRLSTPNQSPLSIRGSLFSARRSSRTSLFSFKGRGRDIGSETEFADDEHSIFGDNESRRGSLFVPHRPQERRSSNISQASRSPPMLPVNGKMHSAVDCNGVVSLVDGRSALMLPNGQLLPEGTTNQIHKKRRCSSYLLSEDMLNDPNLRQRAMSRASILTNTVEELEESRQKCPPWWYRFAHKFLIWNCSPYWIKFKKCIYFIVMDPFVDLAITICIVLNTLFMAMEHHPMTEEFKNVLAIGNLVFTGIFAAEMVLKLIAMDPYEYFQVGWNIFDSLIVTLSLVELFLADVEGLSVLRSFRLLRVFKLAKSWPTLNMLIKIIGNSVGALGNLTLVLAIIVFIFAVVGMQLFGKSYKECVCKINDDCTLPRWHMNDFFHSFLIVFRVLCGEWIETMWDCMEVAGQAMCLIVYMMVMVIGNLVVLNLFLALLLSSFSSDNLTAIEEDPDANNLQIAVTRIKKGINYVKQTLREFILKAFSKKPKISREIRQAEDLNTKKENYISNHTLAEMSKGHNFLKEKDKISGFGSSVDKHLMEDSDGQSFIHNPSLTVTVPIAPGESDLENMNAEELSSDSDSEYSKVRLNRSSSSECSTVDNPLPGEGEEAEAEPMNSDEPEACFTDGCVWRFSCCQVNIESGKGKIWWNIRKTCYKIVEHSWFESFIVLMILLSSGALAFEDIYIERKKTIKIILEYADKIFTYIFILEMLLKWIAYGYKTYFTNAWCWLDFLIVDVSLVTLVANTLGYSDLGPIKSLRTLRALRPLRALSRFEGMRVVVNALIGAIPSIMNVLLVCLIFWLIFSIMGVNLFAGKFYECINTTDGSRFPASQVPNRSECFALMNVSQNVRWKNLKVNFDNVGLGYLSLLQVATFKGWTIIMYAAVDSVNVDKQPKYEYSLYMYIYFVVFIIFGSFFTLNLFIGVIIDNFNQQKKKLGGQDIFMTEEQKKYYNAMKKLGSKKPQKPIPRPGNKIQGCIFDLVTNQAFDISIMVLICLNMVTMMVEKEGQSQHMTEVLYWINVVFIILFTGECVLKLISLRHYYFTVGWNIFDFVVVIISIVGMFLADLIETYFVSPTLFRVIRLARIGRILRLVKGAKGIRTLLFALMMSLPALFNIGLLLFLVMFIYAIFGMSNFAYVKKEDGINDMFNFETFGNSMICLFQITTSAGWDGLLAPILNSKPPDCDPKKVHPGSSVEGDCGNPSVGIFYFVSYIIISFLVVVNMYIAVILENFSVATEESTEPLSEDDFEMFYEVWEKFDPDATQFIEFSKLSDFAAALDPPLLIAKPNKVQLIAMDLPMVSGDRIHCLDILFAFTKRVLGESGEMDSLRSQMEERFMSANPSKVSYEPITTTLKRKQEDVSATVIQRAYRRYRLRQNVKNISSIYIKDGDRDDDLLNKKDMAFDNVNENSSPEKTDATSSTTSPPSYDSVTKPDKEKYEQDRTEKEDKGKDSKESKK

Point of comparison: `O=S(=O)(Nc1ccncn1)c1cnc(O[C@H]2CC[C@H](c3cccc(C(F)(F)F)c3)C[C@@H]2N2CCCC2)c(Cl)c1` [Example 18, 5-chloro-N-(pyrimidin-4-yl)-6-(((1S,2S,4S)-2-(pyrrolidin-1-yl)-4-(3-(trifluoromethyl)phenyl)-cyclohexyl)oxy)pyridine-3-sulfonamide], IC50 0.388 nM. Against it:
- CN(C)[C@H]1C[C@@H](c2cccc(C(F)(F)F)c2)CC[C@@H]1Oc1ccc(S(=O)(=O)Nc2ccncn2)cn1 [Example 1, 6-(((1S,2S,4S)-2-(Dimethylamino)-4-(3-(trifluoromethyl)phenyl)cyclohexyl)oxy)-N-(pyrimidin-4-yl)pyridine-3-sulfonamide] — 2.3-fold higher, 0.9 nM
- CN(C)[C@H]1C[C@@H](c2cccc(C(F)(F)F)c2)CC[C@@H]1Oc1ncc(S(=O)(=O)Nc2ccncn2)cc1Cl [Example 3, 5-Chloro-6-(((1S,2S,4S)-2-(dimethylamino)-4-(3-(trifluoromethyl)phenyl)cyclohexyl)oxy)-N-(pyrimidin-4-yl)pyridine-3-sulfonamide] — 5.7-fold higher, 2.21 nM
- CN(C)[C@H]1C[C@@H](c2cccc(C(F)(F)F)c2)CC[C@@H]1Nc1ncc(S(=O)(=O)Nc2ccncn2)cc1Cl [Example 4, 5-Chloro-6-(((1S,2S,4S)-2-(dimethylamino)-4-(3-(trifluoromethyl)phenyl)cyclohexyl)amino)-N-(pyrimidin-4-yl)pyridine-3-sulfonamide] — 2-fold higher, 0.765 nM
- CN(C)[C@H]1C[C@@H](c2cccc(C(F)(F)F)c2)CC[C@@H]1Nc1ccc(S(=O)(=O)Nc2ccncn2)nc1 [Example 5, 5-(((1S,2S,4S)-2-(Dimethylamino)-4-(3-(trifluoromethyl)phenyl)cyclohexyl)amino)-N-(pyrimidin-4-yl)pyridine-2-sulfonamide] — 21-fold higher, 8.33 nM
- CN(C)[C@H]1C[C@@H](c2cccc(C(F)(F)F)c2)CC[C@@H]1Oc1ncc(S(=O)(=O)Nc2ccncn2)cc1C#N [Example 6, 5-Cyano-6-(((1S,2S,4S)-2-(dimethylamino)-4-(3-(trifluoromethyl)phenyl)cyclohexyl)oxy)-N-(pyrimidin-4-yl)pyridine-3-sulfonamide formate] — 9-fold higher, 3.51 nM
- CN(C)[C@H]1C[C@@H](c2cccc(C(F)(F)F)c2)CC[C@@H]1Oc1ncc(S(=O)(=O)Nc2ccncn2)cc1C1CC1 [Example 7, 5-Cyclopropyl-6-(((1S,2S,4S)-2-(dimethylamino)-4-(3-(trifluoromethyl)phenyl)cyclohexyl)oxy)-N-(pyrimidin-4-yl)pyridine-3-sulfonamide formate] — 3-fold higher, 1.16 nM
- O=S(=O)(Nc1ccncn1)c1ccc(O[C@H]2CC[C@H](c3cccc(OC(F)(F)F)c3)C[C@@H]2N2CCCC2)nc1 [Example 10, N-(pyrimidin-4-yl)-6-(((1S,2S,4S)-2-(pyrrolidin-1-yl)-4-(3-(trifluoromethoxy)phenyl)cyclohexyl)oxy)-pyridine-3-sulfonamide] — 14-fold higher, 5.62 nM
- CN(C)[C@H]1C[C@@H](c2ccc(Cl)c(C(F)(F)F)c2)CC[C@@H]1Nc1ccc(S(=O)(=O)Nc2ccncn2)cn1 [Example 11, 6-(((1S,2S,4S)-4-(4-chloro-3-(trifluoromethyl)phenyl)-2-(dimethylamino)cyclohexyl)amino)-N-(pyrimidin-4-yl)pyridine-3-sulfonamide formate] — 2.8-fold higher, 1.07 nM
- CN(C)[C@H]1C[C@@H](c2ccc(Cl)c(C(F)(F)F)c2)CC[C@@H]1Oc1ccc(S(=O)(=O)Nc2ccncn2)cn1 [Example 12, 6-(((1S,2S,4S)-4-(4-chloro-3-(trifluoromethyl)phenyl)-2-(dimethylamino)cyclohexyl)oxy)-N-(pyrimidin-4-yl)pyridine-3-sulfonamide formate] — 1.7-fold higher, 0.66 nM
- CN(C)[C@H]1C[C@@H](c2cccc(OC(F)(F)F)c2)CC[C@@H]1Oc1ncc(S(=O)(=O)Nc2ccncn2)cc1Cl [Example 13, 5-chloro-6-(((1S,2S,4S)-2-(dimethylamino)-4-(3-(trifluoromethoxy)phenyl)cyclohexyl)oxy)-N-(pyrimidin-4-yl)pyridine-3-sulfonamide] — 4-fold higher, 1.55 nM
- CN(C)[C@H]1C[C@@H](c2cccc(C(F)(F)F)c2)CC[C@@H]1Oc1ncc(S(=O)(=O)Nc2ccncn2)cc1C(F)(F)F [Example 14, 6-(((1S,2S,4S)-2-(dimethylamino)-4-(3-(trifluoromethyl)phenyl)cyclohexyl)oxy)-N-(pyrimidin-4-yl)-5-(trifluoromethyl)pyridine-3-sulfonamide] — 13-fold higher, 5.08 nM
- Cc1cc(S(=O)(=O)Nc2ccncn2)cnc1O[C@H]1CC[C@H](c2cccc(C(F)(F)F)c2)C[C@@H]1N(C)C [Example 15, 6-(((1S,2S,4S)-2-(Dimethylamino)-4-(3-(trifluoromethyl)phenyl)cyclohexyl)oxy)-5-methyl-N-(pyrimidin-4-yl)pyridine-3-sulfonamide] — 11-fold higher, 4.23 nM
- O=S(=O)(Nc1ccncn1)c1ccc(N[C@H]2CC[C@H](c3cccc(C(F)(F)F)c3)C[C@@H]2N2CCCC2)nc1 [Example 16, N-(pyrimidin-4-yl)-6-(((1S,2S,4S)-2-(pyrrolidin-1-yl)-4-(3-(trifluoromethyl)phenyl)cyclohexyl)-amino)pyridine-3-sulfonamide formate] — 7.2-fold higher, 2.79 nM
- O=S(=O)(Nc1ccncn1)c1ccc(O[C@H]2CC[C@H](c3cccc(C(F)(F)F)c3)C[C@@H]2N2CCCC2)nc1 [Example 17, N-(pyrimidin-4-yl)-6-(((1S,2S,4S)-2-(pyrrolidin-1-yl)-4-(3-(trifluoromethyl)phenyl)cyclohexyl)oxy)-pyridine-3-sulfonamide formate] — 1.6-fold higher, 0.602 nM
- O=S(=O)(Nc1ccncn1)c1cnc(O[C@H]2CC[C@H](c3cccc(C(F)(F)F)c3)C[C@@H]2N2CCCCC2)c(Cl)c1 [Example 19, 5-chloro-6-(((1S,2S,4S)-2-(piperidin-1-yl)-4-(3-(trifluoromethyl)phenyl)cyclohexyl)oxy)-N-(pyrimidin-4-yl)pyridine-3-sulfonamide] — within 1.5-fold, 0.281 nM
- CN(C)[C@H]1C[C@@H](c2cccc(C(F)(F)F)c2)CC[C@@H]1Oc1ncc(S(=O)(=O)Nc2ccncn2)cc1Br [Example 20, 5-bromo-6-(((1S,2S,4S)-2-(dimethylamino)-4-(3-(trifluoromethyl)phenyl)cyclohexyl)oxy)-N-(pyrimidin-4-yl)pyridine-3-sulfonamide formate] — 2.3-fold higher, 0.9 nM
- CN(C)[C@H]1C[C@@H](c2cccc(C(F)(F)F)c2)CC[C@@H]1Oc1ncc(S(=O)(=O)Nc2ccncn2)cc1F [Example 21, 6-(((1S,2S,4S)-2-(Dimethylamino)-4-(3-(trifluoromethyl)phenyl)cyclohexyl)oxy)-5-fluoro-N-(pyrimidin-4-yl)pyridine-3-sulfonamide] — within 1.5-fold, 0.427 nM
- CN(C)[C@H]1C[C@@H](c2cccc(C(F)(F)F)c2)CC[C@@H]1Oc1ccc(S(=O)(=O)Nc2ccncn2)c(Cl)n1 [Example 22, 2-Chloro-6-(((1S,2S,4S)-2-(dimethylamino)-4-(3-(trifluoromethyl)phenyl)cyclohexyl)oxy)-N-(pyrimidin-4-yl)pyridine-3-sulfonamide] — 5.7-fold higher, 2.21 nM
- Cc1nc(O[C@H]2CC[C@H](c3cccc(C(F)(F)F)c3)C[C@@H]2N(C)C)ccc1S(=O)(=O)Nc1ccncn1 [Example 23, 6-(((1S,2S,4S)-2-(Dimethylamino)-4-(3-(trifluoromethyl)phenyl)cyclohexyl)oxy)-2-methyl-N-(pyrimidin-4-yl)pyridine-3-sulfonamide formate] — 2-fold higher, 0.765 nM
- CCc1cc(S(=O)(=O)Nc2ccncn2)cnc1O[C@H]1CC[C@H](c2cccc(C(F)(F)F)c2)C[C@@H]1N(C)C [Example 24, 6-(((1S,2S,4S)-2-(Dimethylamino)-4-(3-(trifluoromethyl)phenyl)cyclohexyl)oxy)-5-ethyl-N-(pyrimidin-4-yl)pyridine-3-sulfonamide formate] — 21-fold higher, 8.33 nM
- CN(C)[C@H]1C[C@@H](c2cccc(OC(F)(F)F)c2)CC[C@@H]1Oc1ccc(S(=O)(=O)Nc2ccncn2)cn1 [Example 25, 6-(((1S,2S,4S)-2-(dimethylamino)-4-(3-(trifluoromethoxy)phenyl)cyclohexyl)oxy)-N-(pyrimidin-4-yl)pyridine-3-sulfonamide formate] — 9-fold higher, 3.51 nM
- O=S(=O)(Nc1ccncn1)c1ccc(O[C@H]2CC[C@H](c3cccc(C(F)(F)F)c3)C[C@@H]2N2CCCCC2)nc1 [Example 26, 6-(((1S,2S,4S)-2-(piperidin-1-yl)-4-(3-(trifluoromethyl)phenyl)cyclohexyl)oxy)-N-(pyrimidin-4-yl)pyridine-3-sulfonamide] — 3-fold higher, 1.16 nM
